Measured values from US6514988B1, “Condensed-ring thiophene derivatives, their production and use” (Takeda Chemical Industries, Ltd., priority 1994, dated 2003).
Where a name gives a salt, the structure may show the parent alone. Read-outs that look alike come from different tables or passages of the source. One block for each compound: values may come before it.

How the values were obtained:
[1] = test system: primary cultured cells of rat pituitary anterior lobes; assay: Inhibition of LH/FSH secretion by primary cultured cells of rat pituitary anterior lobes; type: cell-based; settings: 100 μl of 20 μM compound solution + 100 μl of 5 nM GnRH in 800 μl medium, 37° C. for 3 hours
Procedure: Anterior lobes of pituitary glands from 40 Wistar rats (8-week old, male) was put into a petri dish containing buffer A (0.7 mM sodium dihydrogen phosphate, 137 mM sodium chloride, 5 mM potassium chloride, 25 mM HEPES, 50 μg/ml gentamicin sulfate), which was once washed with the buffer A, then the anterior lobes were divided into four portions, followed by further washing twice. […] The concentrations of […] and FSH in the supernatant were determined by using the radio immunoassay kit (Amersham Inc.).
By calculating in accordance with the formula; 100−(LH or FSH concentration in the presence of the compound)/(LH or FSH concentration of the control culture)×100, the inhibiting rate (%) of LH or FSH secretion by each compound was determined. […]

male SD rats = assay: Suppression of testosterone concentration in rat plasma; type: in vivo; settings: 30 mg per 1 kg once subcutaneously, plasma at 24 hours after administration, p<0.05
Procedure: The compound 15 produced in Working Example 9 was dissolved in vehicle I (20% propylene glycol-80% physiological saline). The solution was administered once subcutaneously to male SD rats (8-week old, n=5). […] Animals administered with the vehicle alone were used as control.

male ICR mice = settings: 30 mg per 1 kg orally once a day during 3 days, plasma at 24 hours after administration, p<0.05
Procedure: The solution was administered oraly once a day during successive 3 days to male ICR mice (10-week old, n=12). The dosage was 30 mg per 1 kg of body weight. ICR mice administered with vehicle alone were used as control (n=15). At 24 hours after the administration, blood was collected from jugular vein under anesthesia with ether. To the blood were immediately added ethylenediamine tetracetate (EDTA) at a final concentration of 3 mg/ml and aprotinin at a final concentration of 300 KIU/ml. The mixture was centrifuged for 15 minutes at 3000×g, and the concentration of testosterone in the plasma was measured by the radio immunoassay.
The rate of testosterone suppression (%) of the test compound was determined by the formula; 100−(concentration of plasma testosterone in the test group)/(concentration of plasma testosterone in the control group)×100.

melting point: 147 to 152 °C
Compound: CCOC(=O)c1cn(Cc2ccccc2OC)c2sc(-c3ccc(OC)cc3)c(CN(C)Cc3ccccc3)c2c1=O (as salt: hydrochloride) [3-(N-benzyl-N-methylaminomethyl)-4,7-dihydro-7-(2-methoxybenzyl)-2-(4-methoxyphenyl)-4-oxothieno[2,3-b]pyridine-5-carboxylic acid ethyl ester]

Compound: CCOC(=O)c1cn(Cc2ccccc2OC)c2sc(-c3ccc(OC)cc3)c(CN(C)Cc3ccccc3)c2c1=O [3-(N-benzyl-N-methylaminomethyl)-4,7-dihydro-7-(2-methoxybenzyl)-2-(4-methoxyphenyl)-4-oxothieno[2,3-b]pyridine-5-carboxylic acid ethyl ester]
inhibition at 20 µM (stock) ([1]; p<0.01, n=3, read-out: inhibiting rate (%) of FSH secretion): 20 ± 10%
inhibition at 20 µM (stock) ([1]; p<0.01, n=3, read-out: inhibiting rate (%) of LH secretion): 28 ± 9%
rate of testosterone suppression (%) (male SD rats): 38±9.7%

Compound: CCC(=O)Nc1ccc(-c2sc3c(c2CN(C)Cc2ccccc2)c(=O)c(C(=O)c2ccccc2)cn3Cc2c(F)cccc2F)cc1 [Working Example 56, 5-Benzoyl-7-(2,6-difluorobenzyl)-4,7-dihydro-3-(N-methyl-N-benzylaminomethyl)-2-(4-propionylamidophenyl)-4-oxothieno[2,3-b]pyridine]
rate of testosterone suppression (%) (male ICR mice): 85±9.7%
